Experiment [1] deals with PAF-induced cutaneous vascular permeability. Briefly: In vivo assay: inhibition of PAF-induced increase of cutaneous vasopermeability in guinea pigs after oral dosing. To be noted: guinea pig. As for the experimental part:
The specific PAF-antagonistic activities are further established by in vivo assays following the protocol (modified procedure of Humphrey et al., Lab. Investigation, 46, 422 (1982)) described below:
Protocol for the Evaluation of the Oral Activity of
PAF Antagonists or the Inhibition of PAF-Induced
Increase of Vasopermeability by PAF-Antagonists
I. Animal species: 5 guinea pigs (400-500 g)
(4.) Ground and suspend a PAF antagonist of formula
(I) with intensive sonication in 3 ml of 0.5%
aqueous methylcellulose solution.
(5.) Administer orally to each of the animals T1,
T2, T3 and T4 an appropriate amount (in
terms of mg/kg of bodyweight) of the antagonist
solution from 4), except the control animal
(6.) Forty minutes after the oral administration,
(7.) After 20 minutes or when the anesthetics became
effective, inject intracardially to each animal
and inject intracutaneously, in duplicate 0.1
ml of a PAF solution in Tris-buffer or 0.1 ml
of the Tris-buffer itself (control) according
(9.) Wait for 30 minutes or until the blue color
(13.) In the meantime, extract a 100 μl sample of
(15.) Measure the absorbance of each supernatant from
Palo Alto, CA). Calculate the amount of Evans
blue in each skin sample in terms of the volume
(μl) of the exuded blood plasma according to
the following equation: […]
(16.) Draw a plasma exudation curve
(17.) Calculate the percent inhibition of PAF-induced
cutaneous vascular permeability from measuring
the area under the plasma exudation curve of
the control animal (AC) and that of an
animal treated orally with an antagonist
(AD), for example T1, according to the […]

Experiment [2] has as its target T1, PAF specific receptor binding site on rabbit platelet plasma membranes (Oryctolagus cuniculus, UniProt G1TEI7).
T1 construct: from tissue; host or cells: rabbit platelets (plasma membrane suspension)
Briefly: Inhibition of 3H-PAF binding to rabbit platelet plasma membranes. To be noted: read-out: % Inhibition of PAF Binding. The protocol:
In vitro, they inhibit PAF-induced functions in both the cellular and tissue levels by disturbing the PAF binding to its specific receptor site. The ability of a compound of formula (I) to inhibit the PAF binding to its specific receptor binding site on rabbit platelet plasma membranes was measured by an assay recently developed by us.
The inhibition of H^3 -PAF binding to the rabbit platelet plasma membrane by a PAF-antagonist of Formula (I) was determined by a method employing isotropic labeling and filtration techniques. Generally, a series of Tris-buffered solutions of the selected antagonist at predetermined concentrations were prepared. Each of these solutions contains 1 pmole of ^3 H-PAF, a known amount of the test antagonist, and a sufficient amount of the pH 7.5 Tris-buffer solution (10 mM Tris, 0.25% bovine serum albumin, and 150 mM NaCl per ml water) to make the final volume of 1 ml. After adding into a set of test tubes each with 100 μg of the platelet plasma membrane suspension (S. B. Hwang, et al., Biochemistry, 22, 4756 (1983)) and one of the Tris-buffer solutions described above, the resulting mixture in each test tube was incubated at 0° C. for about one hour or until the reaction was complete. Two control samples, one of which (C1) contains all the ingredients described above except the antagonist and the other (C2) contains C1 plus a 1000-fold excess of unlabeled PAF, were also prepared and incubated simultaneously with the test samples. After the incubation was completed, the contents of each test tube were filtered under vacuo through a Whatman GF/C fiberglass filter and the residue washed rapidly several times with a total of 20 ml cold (0°-5° C.) Tris-buffer solution. Each washed residue was then suspended in 10 ml scintillation solution (Aquasol 2, New England Nuclear, Connecticut) and the radioactivity was counted in a Packard Tri-Carb 460CD Liquid Scintillation System. Defining the counts from a test sample as "Total binding with antagonist"; the counts from the control sample C1, as "Total binding C1 "; and the counts from the control sample C2 as "non-specific binding C2 ", the percent inhibition of each test antagonist can be determined by the following equation: [formula]

The mark [3] stands for this setting: Table 1, E (trans), dose 0.1 μM.
[4] abbreviates: Table 1, E (trans), dose 0.5 μM.

Where two headings read alike, the source gives them in different places.

T1 sequence (G1TEI7 1-342): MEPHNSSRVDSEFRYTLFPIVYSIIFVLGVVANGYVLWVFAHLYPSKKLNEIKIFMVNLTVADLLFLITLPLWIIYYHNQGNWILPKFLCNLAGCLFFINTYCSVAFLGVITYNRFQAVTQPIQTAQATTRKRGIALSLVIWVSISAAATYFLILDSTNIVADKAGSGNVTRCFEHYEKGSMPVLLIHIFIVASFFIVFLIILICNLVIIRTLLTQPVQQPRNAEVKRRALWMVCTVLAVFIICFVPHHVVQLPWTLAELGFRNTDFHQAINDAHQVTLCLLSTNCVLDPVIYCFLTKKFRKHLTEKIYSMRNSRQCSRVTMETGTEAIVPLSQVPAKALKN

What is called inhibition is the share of the control response that was lost under treatment. For `COc1ccc2c(c1)C(CCS(C)(=O)=O)=C(C)/C2=C\c1ccc(S(N)(=O)=O)cc1` [E CH2CH2SO2CH3 / SO2NH2 / OCH3, E 1-(4-aminosulfonylphenyl)methylene-5-methoxy-2-methyl-1H-3-indenyl-(2-methylsulfonyl)ethane], the “% In Vivo Inhibition of PAF Receptor” value in experiment [1] (10 mg/kg) amounted to 9%; in experiment [1] (20 mg/kg), 45%. Moreover, the inhibition at 0.1 µM in experiment [2] (setting [3]) was found to be 35%. For the same molecule, the inhibition at 0.5 µM in experiment [2] (setting [4]) came to 61%. For the same molecule, in experiment [2] (Table 1, E (trans), dose 1 μM), the inhibition at 1 µM amounted to 81%. For the same molecule, the inhibition at 5 µM in experiment [2] (Table 1, E (trans), dose 5 μM) stood at 100%.

`COCCC1=C(C)/C(=C\c2ccc(S(N)(=O)=O)cc2)c2ccc(OC)cc21` [E CH2CH2OCH3 / SO2NH2 / OCH3, E 1-(4-aminosulfonylphenyl)methylene-5-methoxy-2-methyl-1H-3-indenyl-(2-methoxy)ethane]: the “% In Vivo Inhibition of PAF Receptor” value in experiment [1] (10 mg/kg) is given as 28%. Besides, the “% In Vivo Inhibition of PAF Receptor” value in experiment [1] (20 mg/kg) is 60%. In addition, the “% In Vivo Inhibition of PAF Receptor” value in experiment [1] (30 mg/kg) is reported as 67%. Moreover, in experiment [2], the inhibition at 0.05 µM was 20%, the inhibition at 0.1 µM was found to be 40%, the inhibition at 0.25 µM was found to be 58% and the inhibition at 0.5 µM came to 76%. Moreover, in experiment [2], the inhibition at 1 µM stood at 80%, the inhibition at 2.5 µM was 100% and the inhibition at 5 µM worked out at 100%.

For the molecule `COc1ccc2c(c1)C(CCn1ccnc1)=C(C)/C2=C\c1ccc(S(N)(=O)=O)cc1` [E drawing 22 / SO2NH2 / OCH3], the “% In Vivo Inhibition of PAF Receptor” value in experiment [1] (45 mg/kg) came to 52%; in experiment [1] (50 mg/kg), 59%.

Take `COc1ccc2c(c1)C(CCSC)=C(C)/C2=C\c1ccc(S(N)(=O)=O)cc1` [E CH2CH2SCH3 / SO2NH2 / OCH3, E 1-(4-aminosulfonylphenyl)methylene-5-methoxy-2-methyl-1H-3-indenyl-(2-methylthio)ethane]: the “% In Vivo Inhibition of PAF Receptor” value came to 30% in experiment [1] (10 mg/kg) and 46% in experiment [1] (20 mg/kg). In experiment [2] (setting [3]), the inhibition at 0.1 µM was 34%. In experiment [2] (setting [4]), the inhibition at 0.5 µM was determined as 78%. The inhibition at 1 µM in experiment [2] (Table 1, E (trans), dose 1 μM) was determined as 100%.

On to `COC(=O)CC1=C(C)/C(=C\c2ccc(S(N)(=O)=O)cc2)c2ccc(OC)cc21` [E CH2COOCH3 / SO2NH2 / OCH3, E methyl 1-(4-aminosulfonylphenyl)methylene-5-methoxy-2-methyl-1H-3-indenylacetate], for which, in experiment [1] (50 mg/kg), the “% In Vivo Inhibition of PAF Receptor” value came out at 0%. Also, in experiment [2] (setting [3]), the inhibition at 0.1 µM was determined as 35%. In addition, the inhibition at 0.5 µM in experiment [2] (setting [4]) is 70%. For the same molecule, the inhibition at 1 µM in experiment [2] (Table 1, E (trans), dose 1 μM) was determined as 84%. In addition, the inhibition at 5 µM in experiment [2] (Table 1, E (trans), dose 5 μM) was 100%.

These data come from patent publication US4656190A, “Indene derivatives and their use as PAF-antagonists” (Merck & Co., Inc., priority 1983, dated 1987).
